Patent US20230085307A1, “PYRIDAZINONE COMPOUND AND HERBICIDE” (NISSAN CHEMICAL CORPORATION, priority 2019, published 2023)

Assays:
[1] = system: southern crabgrass; experiment: Test Example 5: herbicidal effect by foliage application, plastic box (Table 20, symbol F); assay type: in vivo, southern crabgrass (Digitaria ciliaris); details: foliage application, 320 g/ha, three weeks after application
In short: (§1)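 Post-emergence foliar test in sterilized diluvial soil. Compound applied as water-diluted emulsion at a predetermined rate to 14-day-old plants; evaluation at three weeks.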

[2] = system: persian speedwell; experiment: Test Example 4: herbicidal effect by soil treatment (Table 19, symbol R); assay type: in vivo, Persian speedwell (Veronica persica); details: amount of applied herbicide 320 g/ha
In short: (§2)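 Emulsion of test compound, water-diluted to predetermined amount, sprayed on soil after sowing (seed depth ~1.5 cm, sterilized diluvial soil). Greenhouse, 25–30° C. Effect graded at three weeks post-spray.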

[3] = system: redroot pigweed; experiment: Test Example 4: herbicidal effect by soil treatment (Table 19, symbol N); assay type: in vivo, redroot pigweed (Amaranthus retroflexus); details: amount of applied herbicide 320 g/ha
In short: as §2

[4] = system: wild oat; experiment: Test Example 4: herbicidal effect by soil treatment (Table 19, symbol I); assay type: in vivo, wild oat (Avena fatua); details: amount of applied herbicide 320 g/ha
In short: as §2

[5] = system: false cleavers; experiment: Test Example 4: herbicidal effect by soil treatment (Table 19, symbol Q); assay type: in vivo, false cleavers (Galium spurium); details: amount of applied herbicide 320 g/ha
In short: as §2

[6] = system: chickweed; experiment: Test Example 5: herbicidal effect by foliage application, plastic box (Table 20, symbol P); assay type: in vivo, common chickweed (Stellaria media); details: foliage application, 320 g/ha, three weeks after application
In short: as §1

[7] = system: green foxtail; experiment: Test Example 4: herbicidal effect by soil treatment (Table 19, symbol G); assay type: in vivo, green foxtail (Setaria viridis); details: amount of applied herbicide 320 g/ha
In short: as §2

[8] = system: velvetleaf; experiment: Test Example 4: herbicidal effect by soil treatment (Table 19, symbol M); assay type: in vivo, velvetleaf (Abutilon theophrasti); details: amount of applied herbicide 320 g/ha
In short: as §2

[9] = system: Italian ryegrass; experiment: Test Example 4: herbicidal effect by soil treatment (Table 19, symbol K); assay type: in vivo, Italian ryegrass (Lolium multiflorum); details: amount of applied herbicide 320 g/ha
In short: as §2

[10] = system: lambsquarters; experiment: Test Example 5: herbicidal effect by foliage application, plastic box (Table 20, symbol O); assay type: in vivo, lambsquarters (Chenopodium album); details: foliage application, 320 g/ha, three weeks after application
In short: as §1

[11] = system: lambsquarters; experiment: Test Example 4: herbicidal effect by soil treatment (Table 19, symbol O); assay type: in vivo, lambsquarters (Chenopodium album); details: amount of applied herbicide 320 g/ha
In short: as §2

[12] = system: southern crabgrass; experiment: Test Example 4: herbicidal effect by soil treatment (Table 19, symbol F); assay type: in vivo, southern crabgrass (Digitaria ciliaris); details: amount of applied herbicide 320 g/ha
In short: as §2

[13] = system: velvetleaf; experiment: Test Example 5: herbicidal effect by foliage application, plastic box (Table 20, symbol M); assay type: in vivo, velvetleaf (Abutilon theophrasti); details: foliage application, 320 g/ha, three weeks after application
In short: as §1

[14] = system: barnyard grass; experiment: Test Example 3: herbicidal effect by foliage application, Wagner pot (Table 18, symbol H); assay type: in vivo, barnyard grass (Echinochloa crus-galli); details: 320 g/ha
In short: (§3)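 Plants were sown in alluvial soil held under 0.1–0.5 cm standing water and grown 14 days in a greenhouse at 25–30 °C. An emulsifiable formulation, water-diluted to the set dose, was then sprayed onto the foliage, and effects were scored three weeks later using previously defined criteria.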

[15] = system: redroot pigweed; experiment: Test Example 5: herbicidal effect by foliage application, plastic box (Table 20, symbol N); assay type: in vivo, redroot pigweed (Amaranthus retroflexus); details: foliage application, 320 g/ha, three weeks after application
In short: as §1

[16] = system: windgrass; experiment: Test Example 5: herbicidal effect by foliage application, plastic box (Table 20, symbol L); assay type: in vivo, windgrass (Apera spica-venti); details: foliage application, 320 g/ha, three weeks after application
In short: as §1

[17] = system: blackgrass; experiment: Test Example 5: herbicidal effect by foliage application, plastic box (Table 20, symbol J); assay type: in vivo, blackgrass (Alopecurus myosuroides); details: foliage application, 320 g/ha, three weeks after application
In short: as §1

[18] = system: persian speedwell; experiment: Test Example 5: herbicidal effect by foliage application, plastic box (Table 20, symbol R); assay type: in vivo, Persian speedwell (Veronica persica); details: foliage application, 320 g/ha, three weeks after application
In short: as §1

[19] = system: wild oat; experiment: Test Example 5: herbicidal effect by foliage application, plastic box (Table 20, symbol I); assay type: in vivo, wild oat (Avena fatua); details: foliage application, 320 g/ha, three weeks after application
In short: as §1

[20] = system: Italian ryegrass; experiment: Test Example 5: herbicidal effect by foliage application, plastic box (Table 20, symbol K); assay type: in vivo, Italian ryegrass (Lolium multiflorum); details: foliage application, 320 g/ha, three weeks after application
In short: as §1

[21] = system: barnyard grass; experiment: Test Example 4: herbicidal effect by soil treatment (Table 19, symbol H); assay type: in vivo, barnyard grass (Echinochloa crus-galli); details: amount of applied herbicide 320 g/ha
In short: as §2

[22] = system: green foxtail; experiment: Test Example 5: herbicidal effect by foliage application, plastic box (Table 20, symbol G); assay type: in vivo, green foxtail (Setaria viridis); details: foliage application, 320 g/ha, three weeks after application
In short: as §1

[23] = system: barnyard grass; experiment: Test Example 5: herbicidal effect by foliage application, plastic box (Table 20, symbol H); assay type: in vivo, barnyard grass (Echinochloa crus-galli); details: foliage application, 320 g/ha, three weeks after application
In short: as §1

[24] = system: blackgrass; experiment: Test Example 4: herbicidal effect by soil treatment (Table 19, symbol J); assay type: in vivo, blackgrass (Alopecurus myosuroides); details: amount of applied herbicide 320 g/ha
In short: as §2

[25] = system: rice flat sedge; experiment: Test Example 3: herbicidal effect by foliage application, Wagner pot (Table 18, symbol E); assay type: in vivo, rice flat sedge (Cyperus iria); details: 320 g/ha
In short: as §3

[26] = system: Chinese sprangletop; experiment: Test Example 3: herbicidal effect by foliage application, Wagner pot (Table 18, symbol D); assay type: in vivo, chinese sprangletop (Leptochloa chinensis); details: 320 g/ha
In short: as §3

[27] = system: windgrass; experiment: Test Example 4: herbicidal effect by soil treatment (Table 19, symbol L); assay type: in vivo, windgrass (Apera spica-venti); details: amount of applied herbicide 320 g/ha
In short: as §2

[28] = system: false cleavers; experiment: Test Example 5: herbicidal effect by foliage application, plastic box (Table 20, symbol Q); assay type: in vivo, false cleavers (Galium spurium); details: foliage application, 320 g/ha, three weeks after application
In short: as §1

[29] = system: chickweed; experiment: Test Example 4: herbicidal effect by soil treatment (Table 19, symbol P); assay type: in vivo, common chickweed (Stellaria media); details: amount of applied herbicide 320 g/ha
In short: as §2

| SMILES | F: southern crabgrass, herbicidal effect grade [1] | R: persian speedwell, herbicidal effect grade [2] | N: redroot pigweed, herbicidal effect grade [3] | I: wild oat, herbicidal effect grade [4] | Q: false cleavers, herbicidal effect grade [5] | P: chickweed, herbicidal effect grade [6] | G: green foxtail, herbicidal effect grade [7] | M: velvetleaf, herbicidal effect grade [8] | K: Italian ryegrass, herbicidal effect grade [9] | O: lambsquarters, herbicidal effect grade [10] | O: lambsquarters, herbicidal effect grade [11] | F: southern crabgrass, herbicidal effect grade [12] | M: velvetleaf, herbicidal effect grade [13] | herbicidal effect on barnyard grass (H) [14] | N: redroot pigweed, herbicidal effect grade [15] | L: windgrass, herbicidal effect grade [16] | J: blackgrass, herbicidal effect grade [17] | R: persian speedwell, herbicidal effect grade [18] | I: wild oat, herbicidal effect grade [19] | K: Italian ryegrass, herbicidal effect grade [20] | also measured |
| --- | --- | --- | --- | --- | --- | --- | --- | --- | --- | --- | --- | --- | --- | --- | --- | --- | --- | --- | --- | --- | --- |
| COc1ccc(-c2sc3cc(OC)ccc3c2-c2c(O)c(C)nn(C)c2=O)cc1 [3-068] | 0 (Herbicidal rate of 5% or less (almost no effect)) | 5 (Herbicidal rate of 90% or more (almost completely withered)) | 4 (Herbicidal rate of 70% or more and less than 90%) | 0 (Herbicidal rate of 5% or less (almost no effect)) | 4 (Herbicidal rate of 70% or more and less than 90%) | 5 (Herbicidal rate of 90% or more (almost completely withered)) | 0 (Herbicidal rate of 5% or less (almost no effect)) | 0 (Herbicidal rate of 5% or less (almost no effect)) | 2 (Herbicidal rate of 20% or more and less than 40%) | 5 (Herbicidal rate of 90% or more (almost completely withered)) | 4 (Herbicidal rate of 70% or more and less than 90%) | 0 (Herbicidal rate of 5% or less (almost no effect)) | 4 (Herbicidal rate of 70% or more and less than 90%) | 3 (Herbicidal rate of 40% or more and less than 70%) | 3 (Herbicidal rate of 40% or more and less than 70%) | 0 (Herbicidal rate of 5% or less (almost no effect)) | 1 (Herbicidal rate of 5% or more and less than 20%) | 5 (Herbicidal rate of 90% or more (almost completely withered)) | 0 (Herbicidal rate of 5% or less (almost no effect)) | 3 (Herbicidal rate of 40% or more and less than 70%) | H: barnyard grass, herbicidal effect grade [21]: 0 (Herbicidal rate of 5% or less (almost no effect)); G: green foxtail, herbicidal effect grade [22]: 0 (Herbicidal rate of 5% or less (almost no effect)); H: barnyard grass, herbicidal effect grade [23]: 0 (Herbicidal rate of 5% or less (almost no effect)); J: blackgrass, herbicidal effect grade [24]: 0 (Herbicidal rate of 5% or less (almost no effect)); herbicidal effect on rice flat sedge (E) [25]: 3 (Herbicidal rate of 40% or more and less than 70%); herbicidal effect on Chinese sprangletop (D) [26]: 2 (Herbicidal rate of 20% or more and less than 40%); L: windgrass, herbicidal effect grade [27]: 0 (Herbicidal rate of 5% or less (almost no effect)); Q: false cleavers, herbicidal effect grade [28]: 5 (Herbicidal rate of 90% or more (almost completely withered)); P: chickweed, herbicidal effect grade [29]: 2 (Herbicidal rate of 20% or more and less than 40%) |
| COc1ccc2c(-c3c(O)c(C)nn(C)c3=O)c(-c3ccc(OC)c(OC)c3)sc2c1 [3-080] | 0 (Herbicidal rate of 5% or less (almost no effect)) | 2 (Herbicidal rate of 20% or more and less than 40%) | 0 (Herbicidal rate of 5% or less (almost no effect)) | 0 (Herbicidal rate of 5% or less (almost no effect)) | 0 (Herbicidal rate of 5% or less (almost no effect)) | 5 (Herbicidal rate of 90% or more (almost completely withered)) | 0 (Herbicidal rate of 5% or less (almost no effect)) | 0 (Herbicidal rate of 5% or less (almost no effect)) | 0 (Herbicidal rate of 5% or less (almost no effect)) | 1 (Herbicidal rate of 5% or more and less than 20%) | 0 (Herbicidal rate of 5% or less (almost no effect)) | 0 (Herbicidal rate of 5% or less (almost no effect)) | 1 (Herbicidal rate of 5% or more and less than 20%) | 1 (Herbicidal rate of 5% or more and less than 20%) | 0 (Herbicidal rate of 5% or less (almost no effect)) | 0 (Herbicidal rate of 5% or less (almost no effect)) | 2 (Herbicidal rate of 20% or more and less than 40%) | 5 (Herbicidal rate of 90% or more (almost completely withered)) | 0 (Herbicidal rate of 5% or less (almost no effect)) | 4 (Herbicidal rate of 70% or more and less than 90%) | H: barnyard grass, herbicidal effect grade [21]: 0 (Herbicidal rate of 5% or less (almost no effect)); G: green foxtail, herbicidal effect grade [22]: 0 (Herbicidal rate of 5% or less (almost no effect)); H: barnyard grass, herbicidal effect grade [23]: 0 (Herbicidal rate of 5% or less (almost no effect)); J: blackgrass, herbicidal effect grade [24]: 0 (Herbicidal rate of 5% or less (almost no effect)); herbicidal effect on rice flat sedge (E) [25]: 4 (Herbicidal rate of 70% or more and less than 90%); herbicidal effect on Chinese sprangletop (D) [26]: 0 (Herbicidal rate of 5% or less (almost no effect)); L: windgrass, herbicidal effect grade [27]: 0 (Herbicidal rate of 5% or less (almost no effect)); Q: false cleavers, herbicidal effect grade [28]: 0 (Herbicidal rate of 5% or less (almost no effect)); P: chickweed, herbicidal effect grade [29]: 0 (Herbicidal rate of 5% or less (almost no effect)) |
